The source of these data is paper PMC10229078, “In vitro effects of lapachol and β-lapachone against Leishmania amazonensis” (Brazilian Journal of Medical and Biological Research, 2023).

≈ marks a conversion by molar mass, not a printed value.

Data set [1] has as its system IL-2, IL-4, IL-6, IFN-γ, TNF-α, IL-17A, IL-10 production in murine macrophages. The experiment in a line: Cytokine production in supernatant of amastigote assays (CBA Mouse Th1/Th2/Th17 kit). The class given is cell-based, BALB/c mice. The conditions noted are these: 24 h; for IL-2, IL-4, IFN-γ, IL-17A, and IL-10 production: macrophages infected with L. amazonensis and treated; for IL-6 levels / TNF-α levels: uninfected and infected treated macrophages, all concentrations tested. Here is the method:
For the determination of cytokines, the supernatant of the amastigote assays stored at −80°C was used (MO, macrophages (negative control); MO + L. amazonensis (6 parasites/macrophage); samples treated with lapachol at IC50/2, IC50, and 2× IC50 with L. amazonensis (+) or without (-); the same was repeated for β-lapachone). The supernatant was centrifuged, and a 50 μL aliquot was used to determine cytokine levels (in pg/mL) using the BD Cytometric Bead Array (CBA) Mouse Th1/Th2/Th17 Cytokine kit (BD Life Sciences - Biosciences, USA). The dosage was performed in triplicate and according to the manufacturer's standards. This method is based on a suspension that contains beads, in which encoded fluorescent beads have cytokines that capture antibodies to bind the proteins. The final analysis was performed by flow cytometry using the BD FacsCalibur™ flow cytometer and CellQuest Pro software. The kit allows the measurement of seven distinct populations of Th1, Th2, and Th17 cytokines (IL-2, IL-4, IL-6, IFN-γ, TNF-α, IL-17A, and IL-10) in a single sample.

The next data set relates to J774A.1 macrophages. The experiment in a line: Macrophage cytotoxicity, XTT, J774A.1.
Data set [2] can be described thus: Macrophage cytotoxicity, XTT, J774A.1. The settings on record: mouse, J774A.1 macrophages.
For data set [3], the system named is L. amazonensis (strains MHOM/BR/1989/ BA199). More on the design: method as in ref 23 Guimarães et al. The settings on record: 72 h, strain MHOM/BR/1989/BA199, ref 23 Guimarães et al.; cited from earlier work.
In data set [4] the test system is Leishmania major promastigotes. More on the design: method as in ref 24 Moreno et al. The settings on record: 48 h of incubation, ref 24 Moreno et al.; cited from earlier work.
Data set [5] concerns L. amazonensis promastigotes. The experiment in a line: DNA fragmentation assay, agarose gel electrophoresis. The conditions noted are these: IC50/24 h (lapachol 76.62 µg/mL, β-lapachone 1.63 µg/mL). The class given is cell-based, Leishmania amazonensis. Here is the method:
The presence of DNA fragmentation was evaluated by electrophoresis in agarose gel according to a previous study ([33]). L. amazonensis (1×10^6 promastigotes/mL) was incubated with the IC50 of compounds for 24 h. After validation of IC50 as mentioned above, pellets were re-suspended in digestion buffer (10 mM ethylenediamine tetraacetic acid [EDTA], 50 mM Tris-HCl [pH 8.0] and 0.5% sodium lauryl sulfate), to which 0.5 mg/mL proteinase K was added. The mixture was incubated for 3 h in […] and again for 1 h at 55°C in the presence of 0.1 mg/mL RNase A. DNA material was extracted by phenol/chloroform (1:1) treatment and was precipitated by adding 3 M sodium acetate and ice-cold ethanol (100%). After an overnight incubation at -20°C, the material was centrifuged (13270 g) for 30 min at 25°C temperature. Then, 2.5 volumes of ethanol (70%) were added to the pellet. The material was centrifuged (13270 g) for 15 min again and the pellet was collected, air dried, and re-suspended in Tris-EDTA buffer (50 µL, pH 8.0). DNA aliquots (10 µg) were electrophoresed on 2% agarose gel that contained ethidium bromide (0.5 µg/mL) using Tris-acetate-EDTA buffer (pH 8.0) for 45 min at 100 V and photographed under ultraviolet light. L. amazonensis untreated promastigotes were used as negative control of fragmentation (C-) and promastigotes treated with H2O2 as positive control (C+). […]

The test system of data set [6] is Peritoneal macrophages from BALB/c mice. The experiment in a line: Macrophage cytotoxicity, XTT, peritoneal macrophages.
Procedure: Peritoneal macrophages from BALB/c mice were obtained as described before and adjusted to 1×10^6 macrophages/mL and plated in 96-well culture plates (TPP™ test plate, Switzerland), followed by 2 h of incubation (5% CO2 at 37°C). […] Cultures were incubated for 24 h at 37°C in 5% CO2, and non-treated cultures were used as viability control. […] After 4 h of incubation in 5% CO2 at 37°C protected from light, the results were measured as absorbance, determined by spectrophotometry (450/620 nm filter, VersaMax™ ELISA microplate reader) ([28]). […] At least three experiments were performed in quadruplicate.
The subject of data set [7] is amastigotes of L. (V.) braziliensis (MHOM/BR/94/H-3227). More on the design: method as in ref 18 Teixeira et al. The conditions noted are these: 50 µg/mL, ref 18 Teixeira et al.; cited from earlier work.
The test system of data set [8] is L. amazonensis amastigotes.
Procedure: The activity of lapachol and β-lapachone on intracellular amastigotes was made on peritoneal macrophages (5×10^5 per well). Cells were seeded onto round glass coverslips within 24-well plates in RPMI 1640 medium and incubated for 2 h at 37°C in 5% CO2. After that, the proportion of 6 parasites (L. amazonensis) per macrophage were added, and cultures were incubated for 4 h at 37°C in 5% CO2. Free parasites were removed by washing with RPMI 1640 medium. The infected macrophages were incubated with lapachol (82.28, 41.14, and 20.57 µg/mL) and β-lapachone (3.26, 1.63, and 0.815 µg/mL) for 24 h at 37°C. After the incubation time, the coverslips were removed, washed, stained with Fast Panoptic, and fixed on glass slides with Entellan. […] The experiments were done twice in triplicate, and treated uninfected cells were used as the cytotoxicity control and non-treated infected cells were used as the positive control of infection. The number of intracellular amastigotes was determined by counting 200 macrophages by concentration in an optical microscope (binocular biological microscope, mod. BA310E LED, Motic, Spain). The infection index was calculated by multiplying the percentage of infected macrophages by the number of parasites per macrophages ([29]).

For the molecule `CC1(C)CCC2=C(O1)c1ccccc1C(=O)C2=O` [β-lapachone, 2,2-dimethyl-3,4-dihydrobenzo[h]chromene-5,6-dione], the “IL-2, IL-4, IFN-γ, IL-17A, and IL-10 production” value in data set [1] is “did not present significant changes”. Also, in data set [1], the IL-6 levels entry is “decrease”. The TNF-α levels entry in data set [1] is “decrease”. Further, the “Selectivity index (SI CC50/IC50)” value in the data set on J774A.1 macrophages (J774A.1 macrophage CC50 / promastigote IC50, 24 h) is on record as 1.95; in data set [6] (murine macrophage CC50 / promastigote IC50, 24 h) it was 1.97. For the same molecule, the “Therapeutic selectivity index (TSI CC50/LD50)” value was 4.89 in the data set with J774A.1 macrophages (J774A.1 macrophage CC50 / promastigote LD50, 24 h) and 4.94 in data set [6] (murine macrophage CC50 / promastigote LD50, 24 h). Moreover, the “times more selective than lapachol for Leishmania death (TSI)” value in the data set on J774A.1 macrophages (J774A.1 macrophages) is 14 times; in data set [6] (murine macrophages) it was 9.15 times. In addition, the figures for the “times more selective than lapachol for inhibiting the growth of Leishmania culture (SI)” value (in the data set with J774A.1 macrophages (J774A.1 macrophages); in [6] (murine macrophages)) were 5.6 times and 3.65 times, respectively. In data set [2], the cytotoxic concentration (CC50) at 24 h came to 3.18 ± 0.04 µg/mL (≈ 13.1 µM). The IC50 in data set [3] was 1.39 µM; in data set [4], 1.5 ± 0.7 µM. Also, the DNA fragmentation result in data set [5] is on record as “promoted DNA fragmentation”.

In the case of “4-hydroxy-3-(3-methylbut-2-enyl)naphthalene-1,2-dione [lapachol]”, in [1], the “IL-2, IL-4, IFN-γ, IL-17A, and IL-10 production” value is reported as “did not present significant changes”; the IL-6 levels entry was “decrease”; the TNF-α levels result was “decrease”. Besides, the “J774A.1 macrophage cytotoxicity CC50” value with J774A.1 macrophages (J774A.1, 24 h) is 26.66 ± 8.69 µg/mL. For the same molecule, the “Inhibition of the infection rate of amastigotes” value in data set [7] was 88.8%. In data set [8], this molecule had an inhibition of 57.6%. In data set [3], the half-inhibitory concentration (IC50) is 102 µM. For the same molecule, the DNA fragmentation entry in data set [5] was “promoted DNA fragmentation”. Moreover, the “Murine macrophage cytotoxicity CC50” value in data set [6] (peritoneal macrophages, 24 h) is 41.14 ± 2.17 µg/mL.
